Results from PubChem BioAssay (NCI).
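Dose response: 5 concentrations. Exposure: 48 h. Format: 96-well plates. Endpoint: linear interpolation; highest concentration if not reached. The concentration for full growth arrest is given as TGI.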

Experiments:
Assay in all cases: NCI tumour cell line growth inhibition, 48 h
786-0 renal = tested on: 786-0 renal
A498 renal = tested on: A498 renal
A549 NSCLC = tested on: A549 NSCLC
ACHN renal = tested on: ACHN renal
BT-549 breast = tested on: BT-549 breast
CAKI-1 renal = tested on: CAKI-1 renal
CCRF-CEM leukemia = tested on: CCRF-CEM leukemia
COLO 205 colon = tested on: COLO 205 colon
DU-145 prostate = tested on: DU-145 prostate
EKVX NSCLC = tested on: EKVX NSCLC
HCT-116 colon = tested on: HCT-116 colon
HCT-15 colon = tested on: HCT-15 colon
HL-60(TB) leukemia = tested on: HL-60(TB) leukemia
HOP-92 NSCLC = tested on: HOP-92 NSCLC
HS 578T breast = tested on: HS 578T breast
HT29 colon = tested on: HT29 colon
IGROV1 ovarian = tested on: IGROV1 ovarian
KM12 colon = tested on: KM12 colon
LOX IMVI melanoma = tested on: LOX IMVI melanoma
M14 melanoma = tested on: M14 melanoma
MCF7 breast = tested on: MCF7 breast
MDA-MB-231 breast = tested on: MDA-MB-231 breast
MDA-MB-435 = tested on: MDA-MB-435
MDA-N = tested on: MDA-N
MOLT-4 leukemia = tested on: MOLT-4 leukemia
NCI-H226 lung = tested on: NCI-H226 lung
NCI-H23 lung = tested on: NCI-H23 lung
NCI-H460 lung = tested on: NCI-H460 lung
NCI-H522 lung = tested on: NCI-H522 lung
NCI/ADR-RES ovarian = tested on: NCI/ADR-RES ovarian
OVCAR-3 ovarian = tested on: OVCAR-3 ovarian
OVCAR-4 ovarian = tested on: OVCAR-4 ovarian
OVCAR-5 ovarian = tested on: OVCAR-5 ovarian
OVCAR-8 ovarian = tested on: OVCAR-8 ovarian
PC-3 prostate = tested on: PC-3 prostate
RPMI-8226 leukemia = tested on: RPMI-8226 leukemia
RXF 393 renal = tested on: RXF 393 renal
SF-268 CNS = tested on: SF-268 CNS
SF-295 CNS = tested on: SF-295 CNS
SF-539 CNS = tested on: SF-539 CNS
SK-MEL-2 melanoma = tested on: SK-MEL-2 melanoma
SK-MEL-5 melanoma = tested on: SK-MEL-5 melanoma
SK-OV-3 ovarian = tested on: SK-OV-3 ovarian
SN12C renal = tested on: SN12C renal
SNB-19 CNS = tested on: SNB-19 CNS
SNB-75 CNS = tested on: SNB-75 CNS
SR leukemia = tested on: SR leukemia
SW-620 colon = tested on: SW-620 colon
T-47D breast = tested on: T-47D breast
TK-10 renal = tested on: TK-10 renal
U251 CNS = tested on: U251 CNS
UACC-257 melanoma = tested on: UACC-257 melanoma
UACC-62 melanoma = tested on: UACC-62 melanoma
UO-31 renal = tested on: UO-31 renal
HCC-2998 colon = tested on: HCC-2998 colon
HOP-62 NSCLC = tested on: HOP-62 NSCLC
K-562 leukemia = tested on: K-562 leukemia
MALME-3M melanoma = tested on: MALME-3M melanoma
SK-MEL-28 melanoma = tested on: SK-MEL-28 melanoma

Q: With `COc1ccc(NC(C)=O)c(C(O)CCNC(C)=O)c1` (stereo not given) as the molecule, how does the TGI (786-0 renal) read?
A: > 100 µM

Q: And the TGI (A498 renal)?
A: > 100 µM

Q: And the TGI (A549 NSCLC)?
A: > 100 µM

Q: What about the TGI (ACHN renal) of the same molecule?
A: > 100 µM

Q: What about the TGI (BT-549 breast) of the same molecule?
A: > 100 µM

Q: What about the TGI (CAKI-1 renal) of the same molecule?
A: > 100 µM

Q: And the TGI (CCRF-CEM leukemia)?
A: > 100 µM

Q: And the TGI (COLO 205 colon)?
A: > 100 µM

Q: What about the TGI (DU-145 prostate) of the same molecule?
A: > 100 µM

Q: And the TGI (EKVX NSCLC)?
A: > 100 µM

Q: What about the TGI (HCT-116 colon) of the same molecule?
A: > 100 µM

Q: And the TGI (HCT-15 colon)?
A: > 100 µM

Q: And the TGI (HL-60(TB) leukemia)?
A: > 100 µM

Q: What about the TGI (HOP-92 NSCLC) of the same molecule?
A: > 100 µM

Q: What about the TGI (HS 578T breast) of the same molecule?
A: > 100 µM

Q: And the TGI (HT29 colon)?
A: > 100 µM

Q: And the TGI (IGROV1 ovarian)?
A: > 100 µM

Q: What about the TGI (KM12 colon) of the same molecule?
A: > 100 µM

Q: What about the TGI (LOX IMVI melanoma) of the same molecule?
A: > 100 µM

Q: What about the TGI (M14 melanoma) of the same molecule?
A: > 100 µM

Q: And the TGI (MCF7 breast)?
A: > 100 µM

Q: What about the TGI (MDA-MB-231 breast) of the same molecule?
A: > 100 µM

Q: What about the TGI (MDA-MB-435) of the same molecule?
A: > 100 µM

Q: And the TGI (MDA-N)?
A: > 100 µM

Q: And the TGI (MOLT-4 leukemia)?
A: > 100 µM

Q: And the TGI (NCI-H226 lung)?
A: > 100 µM

Q: And the TGI (NCI-H23 lung)?
A: > 100 µM

Q: And the TGI (NCI-H460 lung)?
A: > 100 µM

Q: And the TGI (NCI-H522 lung)?
A: > 100 µM

Q: What about the TGI (NCI/ADR-RES ovarian) of the same molecule?
A: > 100 µM

Q: What about the TGI (OVCAR-3 ovarian) of the same molecule?
A: > 100 µM

Q: What about the TGI (OVCAR-4 ovarian) of the same molecule?
A: > 100 µM

Q: And the TGI (OVCAR-5 ovarian)?
A: > 100 µM

Q: And the TGI (OVCAR-8 ovarian)?
A: > 100 µM

Q: And the TGI (PC-3 prostate)?
A: > 100 µM

Q: What about the TGI (RPMI-8226 leukemia) of the same molecule?
A: > 100 µM

Q: What about the TGI (RXF 393 renal) of the same molecule?
A: > 100 µM

Q: And the TGI (SF-268 CNS)?
A: > 100 µM

Q: What about the TGI (SF-295 CNS) of the same molecule?
A: > 100 µM

Q: And the TGI (SF-539 CNS)?
A: > 100 µM

Q: And the TGI (SK-MEL-2 melanoma)?
A: > 100 µM

Q: And the TGI (SK-MEL-5 melanoma)?
A: > 100 µM

Q: And the TGI (SK-OV-3 ovarian)?
A: > 100 µM

Q: And the TGI (SN12C renal)?
A: > 100 µM

Q: What about the TGI (SNB-19 CNS) of the same molecule?
A: > 100 µM

Q: And the TGI (SNB-75 CNS)?
A: > 100 µM

Q: What about the TGI (SR leukemia) of the same molecule?
A: > 100 µM

Q: What about the TGI (SW-620 colon) of the same molecule?
A: > 100 µM

Q: What about the TGI (T-47D breast) of the same molecule?
A: > 100 µM

Q: And the TGI (TK-10 renal)?
A: > 100 µM

Q: And the TGI (U251 CNS)?
A: > 100 µM

Q: And the TGI (UACC-257 melanoma)?
A: > 100 µM

Q: And the TGI (UACC-62 melanoma)?
A: > 100 µM

Q: What about the TGI (UO-31 renal) of the same molecule?
A: > 100 µM

Q: Which results are given for `CC(C)C[C@H](NC(=O)[C@H](Cc1ccc(F)cc1)NC(=O)c1ccccn1)B(O)O`?
A: TGI (786-0 renal): < 0.01 µM; TGI (A549 NSCLC): 0.165 µM; TGI (ACHN renal): 0.0465 µM; TGI (BT-549 breast): < 0.01 µM; TGI (CAKI-1 renal): < 0.0124 µM; TGI (CCRF-CEM leukemia): > 100 µM; TGI (COLO 205 colon): 1.12 µM; TGI (EKVX NSCLC): 0.0933 µM; TGI (HCC-2998 colon): < 0.01 µM; TGI (HCT-116 colon): < 0.01 µM; TGI (HCT-15 colon): < 0.01 µM; TGI (HL-60(TB) leukemia): > 100 µM; TGI (HOP-62 NSCLC): < 0.01 µM; TGI (HOP-92 NSCLC): < 0.01 µM; TGI (HS 578T breast): < 0.0121 µM; TGI (HT29 colon): < 0.01 µM; TGI (K-562 leukemia): > 100 µM; TGI (KM12 colon): < 0.01 µM; TGI (LOX IMVI melanoma): < 0.01 µM; TGI (M14 melanoma): < 0.0107 µM; TGI (MALME-3M melanoma): < 0.01 µM; TGI (MCF7 breast): 0.166 µM; TGI (MDA-MB-231 breast): < 0.01 µM; TGI (MDA-MB-435): < 0.01 µM; TGI (MDA-N): < 0.01 µM; TGI (MOLT-4 leukemia): > 100 µM; TGI (NCI-H226 lung): < 0.01 µM; TGI (NCI-H23 lung): < 0.01 µM; TGI (NCI-H460 lung): 0.0504 µM; TGI (NCI-H522 lung): < 0.01 µM; TGI (NCI/ADR-RES ovarian): 0.0212 µM; TGI (OVCAR-3 ovarian): < 0.01 µM; TGI (OVCAR-4 ovarian): < 0.0326 µM; TGI (OVCAR-5 ovarian): < 0.01 µM; TGI (OVCAR-8 ovarian): < 0.01 µM; TGI (PC-3 prostate): < 0.01 µM; TGI (RPMI-8226 leukemia): > 100 µM; TGI (RXF 393 renal): < 0.01 µM; TGI (SF-268 CNS): < 0.01 µM; TGI (SF-295 CNS): < 0.01 µM; TGI (SF-539 CNS): < 0.01 µM; TGI (SK-MEL-2 melanoma): < 0.01 µM; TGI (SK-MEL-28 melanoma): < 0.01 µM; TGI (SK-MEL-5 melanoma): < 0.01 µM; TGI (SK-OV-3 ovarian): 1.07 µM; TGI (SN12C renal): < 0.01 µM; TGI (SNB-19 CNS): > 33.4 µM; TGI (SNB-75 CNS): < 0.01 µM; TGI (SR leukemia): < 0.01 µM; TGI (SW-620 colon): < 0.01 µM; TGI (T-47D breast): < 0.01 µM; TGI (TK-10 renal): 0.0193 µM; TGI (U251 CNS): 0.106 µM; TGI (UACC-257 melanoma): < 0.01 µM; TGI (UACC-62 melanoma): < 0.01 µM; TGI (UO-31 renal): < 0.01 µM
